Source: publication PMC10518257 (Nature Cancer, 2023)

Target: T1, panel of 255 (vepafestinib) or 256 (all other inhibitors) recombinant kinases (Homo sapiens, UniProt P23458)
T1 construct: purchased Carna Biosciences
Experiment: Kinase selectivity profiling at a single concentration (Carna Biosciences)
Assay type: biochemical
Conditions: 17 nM

T1 sequence (P23458 whole entry): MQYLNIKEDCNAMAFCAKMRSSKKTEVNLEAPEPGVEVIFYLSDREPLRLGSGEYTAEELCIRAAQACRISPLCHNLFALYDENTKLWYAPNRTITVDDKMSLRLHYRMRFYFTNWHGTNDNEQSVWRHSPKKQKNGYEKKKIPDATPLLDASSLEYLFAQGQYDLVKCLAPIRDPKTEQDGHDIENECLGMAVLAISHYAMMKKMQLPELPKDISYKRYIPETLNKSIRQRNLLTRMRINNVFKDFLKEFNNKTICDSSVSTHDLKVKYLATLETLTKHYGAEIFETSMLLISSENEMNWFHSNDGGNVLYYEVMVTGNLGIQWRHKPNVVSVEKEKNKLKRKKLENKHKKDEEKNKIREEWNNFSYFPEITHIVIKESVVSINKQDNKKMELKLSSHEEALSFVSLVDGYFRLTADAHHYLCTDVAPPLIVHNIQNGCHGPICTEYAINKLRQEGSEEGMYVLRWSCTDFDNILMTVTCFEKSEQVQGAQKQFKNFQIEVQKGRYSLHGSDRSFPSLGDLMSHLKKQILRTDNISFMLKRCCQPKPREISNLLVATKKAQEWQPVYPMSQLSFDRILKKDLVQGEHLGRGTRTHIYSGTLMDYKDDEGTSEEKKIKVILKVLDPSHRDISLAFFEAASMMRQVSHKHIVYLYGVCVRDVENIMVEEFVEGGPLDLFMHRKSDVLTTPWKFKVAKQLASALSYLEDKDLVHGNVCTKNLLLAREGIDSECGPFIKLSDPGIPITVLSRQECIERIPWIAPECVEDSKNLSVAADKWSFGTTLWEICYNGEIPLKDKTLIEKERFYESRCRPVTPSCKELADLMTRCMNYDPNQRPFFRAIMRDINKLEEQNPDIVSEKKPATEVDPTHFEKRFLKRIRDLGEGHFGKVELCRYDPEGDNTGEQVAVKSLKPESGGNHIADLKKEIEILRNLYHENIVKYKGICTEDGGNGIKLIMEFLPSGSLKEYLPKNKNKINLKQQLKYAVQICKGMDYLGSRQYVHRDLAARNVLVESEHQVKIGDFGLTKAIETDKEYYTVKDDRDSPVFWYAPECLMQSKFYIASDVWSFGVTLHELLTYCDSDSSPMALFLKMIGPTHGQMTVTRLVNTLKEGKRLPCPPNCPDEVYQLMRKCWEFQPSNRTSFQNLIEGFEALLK

## CO[C@]1(C(=O)N[C@@H](C)c2ccc(-n3cc(F)cn3)nc2)CC[C@H](c2nc(C)cc(Nc3cc(C)[nH]n3)n2)CC1 [Pralsetinib]
  % Inhibiton JAK1: 89.1%
